Data as given in the Deep4Chem optical property database.

Assay: solvent given as SMILES

Work on `COC(=O)c1c(NC(C)(C)C)oc(-c2ccc(-c3ccccc3)cc2)c1C(=O)OC` yielded an absorption maximum (in CC#N) of 355 nm.

Compound `CCOc1ccc(/C=C/C=C/C=C/c2ccc([N+](=O)[O-])cc2)cc1` has an absorption maximum (in CC1CCCCC1) of 414 nm, an absorption maximum (in CC#N) of 412 nm and an absorption maximum (in Cc1ccccc1) of 419 nm. The absorption maximum (in ClCCl) was 420 nm.

With `COc1ccc(-c2cc3c(s2)-c2sc(-c4ccc(OC)cc4)cc2P(c2ccccc2)(c2ccccc2)=[O+][B-]3(c2c(C)cc(C)cc2C)c2c(C)cc(C)cc2C)cc1` the absorption maximum (in C1CCOC1) was 415 nm.

Compound `CN1c2ccccc2CCc2ccccc21` has an absorption maximum (in CC#N) of 279 nm and an absorption maximum (in CO) of 278 nm.

`N#Cc1ccc(/C=C/c2ccc(C=C(c3ccccc3)c3ccccc3)cc2)cc1` gave an absorption maximum (in C1CCOC1) of 366 nm.

`C(#Cc1ccc2ccc3cccc4ccc1c2c34)c1ccccc1` showed an absorption maximum (in Cc1ccccc1) of 362 nm.

Work on `COC(=O)c1ccc(C2=C(/C=C/c3ccc(OC)cc3)O[B-](F)(F)[O+]=C2/C=C/c2ccc(OC)cc2)cc1` yielded an absorption maximum (in ClCCl) of 507 nm.

Compound `COc1ccc(C(=O)OCc2ccc3c4cccc5cccc(c6cccc2c63)c54)cc1` has an absorption maximum (in CCO) of 439 nm.

Work on `CCCCC1(CCCC)c2cc(C#Cc3ccc(/C=C(\C)c4ccccc4)cc3)ccc2-c2ccc(C#Cc3ccc(/C=C(\C)c4ccccc4)cc3)cc21` yielded an absorption maximum (in C1CCOC1) of 365 nm.

`CC1=CC(c2ccc3ccccc3c2)=[O+][B-]2(OC(=O)C(=O)O2)O1` showed an absorption maximum (in CC#N) of 400 nm and an absorption maximum (in ClC(Cl)(Cl)Cl) of 400 nm.

`c1ccc2c(c1)c1ccccc1c1ncncc21` showed an absorption maximum (in ClCCl) of 346 nm.

In the case of `COc1ccc(/C=C/C(=O)c2ccccc2O)cc1OC`, the absorption maximum (in C1CCOC1) is reported as 350 nm, the absorption maximum (in C1COCCO1) is reported as 354 nm and the absorption maximum (in CC#N) is reported as 352 nm. The absorption maximum (in CCCO) was 360 nm, the absorption maximum (in CCO) was 359 nm and the absorption maximum (in CN(C)C=O) was 362 nm. It also gave an absorption maximum (in CO) of 357 nm, an absorption maximum (in CS(C)=O) of 365 nm and an absorption maximum (in ClC(Cl)Cl) of 355 nm. The absorption maximum (in ClCCl) was 353 nm.

In the case of `CN(C)c1ccc(C2=Cc3ccccc3P2(=O)c2ccccc2)cc1` (stereo not drawn), the absorption maximum (in ClCCl) is reported as 413 nm.

`CC1=CC(C)=[N+]2C1=Cc1cccn1[B-]2(F)F` showed an absorption maximum (in CCCCCC) of 493 nm, an absorption maximum (in CO) of 493 nm and an absorption maximum (in ClCCl) of 498 nm.

`CCCCN(CCCC)c1ccc(C#Cc2cc(C#Cc3ccc(C#N)cc3)c(C#Cc3ccc(C#N)cc3)cc2C#Cc2ccc(N(CCCC)CCCC)cc2)cc1` gave an absorption maximum (in ClCCl) of 416 nm.

Work on `C1=Cc2ccc3ccccc3c2NB1c1ccccc1` yielded an absorption maximum (in C1CCCCC1) of 360 nm.

`CC1=CC(C)=[N+]2C1=C(c1ccc(I)cc1)c1c(C)cc(C)n1[B-]2(OCc1ccccc1)OCc1ccccc1` showed an absorption maximum (in ClC(Cl)Cl) of 506 nm.

For `CCCC(=O)c1c2c(c(C(=O)CCC)c3c1OC(CC(=O)OC)(C(=O)OC)O3)OCO2`, the absorption maximum (in CC#N) was 423 nm, the absorption maximum (in CCCCCC) was 413 nm and the absorption maximum (in CCO) was 428 nm. The absorption maximum (in CO) was 428 nm and the absorption maximum (in ClCCl) was 425 nm.

For `COc1ccc(N2c3ccc4ccccc4c3-c3c4ccccc4cc[n+]3[B-]2(c2ccccc2)c2ccccc2)cc1`, the absorption maximum (in Cc1ccccc1) was 520 nm.

Work on `CCC1=C(C)C2=Cc3cc(I)c(I)n3[B-](F)(F)[N+]2=C1C` yielded an absorption maximum (in C1CCCCC1) of 542 nm, an absorption maximum (in CC(C)=O) of 524.5 nm and an absorption maximum (in CCO) of 529 nm. The absorption maximum (in CCOC(C)=O) was 528 nm, the absorption maximum (in CO) was 526.5 nm and the absorption maximum (in OCC(F)(F)F) was 520 nm.

With `N#Cc1cc(C#N)c(-c2cc(-n3c4ccccc4c4ccccc43)cc(-n3c4ccccc4c4ccccc43)c2)cc1-c1ccc(N(c2ccccc2)c2ccccc2)cc1` the absorption maximum (in Cc1ccccc1) was 405 nm.

`CCN(CC)c1ccc(-c2ccc(-c3nc(C#N)c4ccccc4n3)s2)cc1` gave an absorption maximum (in CC#N) of 397 nm and an absorption maximum (in Cc1ccccc1) of 402 nm.

In the case of `CCN(CC)c1ccc2c(c1)OC1=[N+](c3ccc(I)cc3)[B-](F)(F)n3c(nc4ccccc43)C1=C2`, the absorption maximum (in ClCCl) is reported as 496 nm.

With `CCOc1ccc2c(-c3nc(-c4ccccc4)no3)cc(=O)oc2c1` the absorption maximum (in CCO) was 388 nm and the absorption maximum (in ClC(Cl)Cl) was 392 nm.

In the case of `COC(=O)c1ccc(C(=O)NC(C)(C)C)c2c1ccc1c3ccccc3c3ccccc3c12`, the absorption maximum (in ClCCl) is reported as 336 nm.

In the case of `CC(C)(C)c1ccc2c(c1)c1ncncc1c1c3ccccc3sc21`, the absorption maximum (in ClCCl) is reported as 377 nm.
